Reference: ChEMBL document CHEMBL5252529, “Small Molecules in Development for the Treatment of Spinal Muscular Atrophy” (J Med Chem, 2016)
In brackets after ≈: the same amount, converted by molar mass. Blank lines part the entries; values can stand above or below the compound they belong to.

Legend:
[1] = Activation of rabbit psoas fast skeletal Myofibril; assay type: tissue-based, Oryctolagus cuniculus, Muscle tissue
[2] = Aqueous solubility of compound at pH 7.4; assay type: physicochemical; settings: buffer
[3] = Half life in mouse liver microsomes; assay type: ADME, Microsome
[4] = AUClast in Spinal muscular atrophy mouse plasma at 10 mg/kg, po by LC/MS-MS analysis; assay type: ADME, organism-based; parameters: dose 10 mg/kg, route po
[5] = AUClast in Spinal muscular atrophy mouse brain at 10 mg/kg, po by LC/MS-MS analysis; assay type: ADME, organism-based; parameters: dose 10 mg/kg, route po
[6] = Toxicity in Spinal muscular atrophy mouse assessed as survival rate at 10 mg/kg, ip administered daily; assay type: organism-based; settings: in vivo
[7] = Toxicity in Spinal muscular atrophy mouse assessed as survival rate at day 112 (reference value: 100 %); settings: in vivo
[8] = Increase in SMN2 expression in human HEK293 cells assessed as luciferase reporter activity incubated for 24 hrs
m7GpppX diphosphatase = target: T1, m7GpppX diphosphatase (Homo sapiens, UniProt Q96C86); assay: Inhibition of human DcpS
T1 sequence (Q96C86 whole entry): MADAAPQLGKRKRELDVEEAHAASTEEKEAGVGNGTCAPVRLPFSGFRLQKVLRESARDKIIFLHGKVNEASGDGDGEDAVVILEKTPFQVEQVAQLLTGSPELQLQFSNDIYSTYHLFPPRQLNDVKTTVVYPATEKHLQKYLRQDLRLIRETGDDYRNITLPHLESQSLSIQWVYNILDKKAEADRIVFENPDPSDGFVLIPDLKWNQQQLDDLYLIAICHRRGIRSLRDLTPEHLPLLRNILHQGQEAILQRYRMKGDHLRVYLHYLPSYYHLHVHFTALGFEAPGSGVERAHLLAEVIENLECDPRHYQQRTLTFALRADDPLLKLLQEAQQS

Mus musculus [9] = assay: Modulation of human SMN2 mRNA level in Spinal muscular atrophy mouse brain tissue at 10 mg/kg, po measured after 4 hrs; assay type: functional
Mus musculus [10] = assay: Modulation of human SMN2 mRNA level in Spinal muscular atrophy mouse muscle tissue at 10 mg/kg, po measured after 4 hrs; assay type: functional
[11] = Toxicity in Spinal muscular atrophy mouse assessed as survival rate at 0.3 mg/kg, ip administered daily for 40 days; assay type: organism-based; settings: in vivo, 960 h, time 40 day
[12] = Toxicity in Spinal muscular atrophy mouse assessed as survival rate at 1 to 3 mg/kg, po administered daily for 65 days; assay type: organism-based; settings: in vivo, 1560 h, dose 1-3 mg/kg, time 65 day
Mus musculus [13] = assay: Modulation of human SMN2 protein level in Spinal muscular atrophy mouse model assessed as increase in protein level of brain tissue at 10 mg/kg, ip
Mus musculus [14] = assay: Modulation of human SMN2 protein level in Spinal muscular atrophy mouse model assessed as increase in protein level of muscle tissue at 10 mg/kg, ip
[15] = Toxicity in Spinal muscular atrophy mouse assessed as survival rate (reference value: 15 %); settings: in vivo
[16] = Brain to plasma ratio in Spinal muscular atrophy mouse at 3 mg/kg administered subcutaneously for 7 days; assay type: ADME, organism-based; settings: route sc, time 7 day, read-out: BPR
[17] = Brain to plasma ratio in Spinal muscular atrophy mouse at 3 mg/kg administered subcutaneously for 42 days; assay type: ADME, organism-based; settings: route sc, time 42 day, read-out: BPR
[18] = Half life in human serum measured upto 30 min by HPLC analysis
[19] = Toxicity in Spinal muscular atrophy mouse assessed as survival rate after 5 days; settings: in vivo, 120 h, time 5 day
[20] = Acute toxicity in Spinal muscular atrophy mouse assessed as survival rate; settings: in vivo
[21] = Toxicity in Spinal Muscular atrophy mouse assessed as increase in survival rate; settings: in vivo

Compound: C#Cc1cnc2nc(O)n(C(CC)CC)c2n1
EC50 [1]: 3.4 µM

Compound: CC(C)c1cc(C(=O)Nc2ccccc2)no1
solubility [2]: 59 µM (≈ 13.6 µg/mL) | half-life [3]: 5 min

Compound: Nc1nc(N)c2c(OCC3CCN(Cc4c(Cl)cccc4Cl)CC3)cccc2n1
AUC(0-t) [4]: 157 ng·h/mL | AUC(0-t) [5]: 6760 ng·h/mL | Activity [6]: 26% | Activity [7]: 27%

Compound: CCN1CCC(c2cc(C)c3nc(-c4cc5c(C)nc(C)cn5n4)cc(=O)n3c2)CC1
Activity (Mus musculus [9]): 90% | Activity (Mus musculus [10]): 50% | Activity [11]: 50% | Activity [12]: 90% | Activity (Mus musculus [13]): 150% | Activity (Mus musculus [14]): 90%

Compound: CC(C)CCC[C@@H](C)[C@H]1CC[C@H]2[C@@H]3CCC4=CC(=NO)CC[C@]4(C)[C@H]3CC[C@]12C [OLESOXIME]
Activity [15]: 45% | Kp at 168 h [16]: 0.35 | Kp at 1008 h [17]: 0.51

Compound: CCCC(=O)[O-].[Na+] [SODIUM BUTYRATE]
half-life at 0.5 h [18]: 6 min

Compound: CC(/C=C/C(=O)NO)=C\[C@@H](C)C(=O)c1ccc(N(C)C)cc1 [TRICHOSTATIN]
Activity [19]: 19% | Activity [20]: 40%

Compound: O=C(CCCCCCC(=O)Nc1ccccc1)NO [VORINOSTAT]
Activity [21]: 30%

Second part, the compound after the results:

solubility [2]: 6 µM (≈ 1.7 µg/mL) | half-life [3]: 5 min
Compound: CC(C)c1cc(C(=O)Nc2ccc(F)c(Cl)c2)no1

solubility [2]: 4 µM (≈ 1.64 µg/mL) | half-life [3]: 40 min | EC50 at 24 h [8]: 8.3 µM
Compound: COc1cc2c(c(OC)c1OC)C(c1cc(Br)ccc1F)CC(=O)N2 (stereo not drawn)

solubility [2]: 77 µM (≈ 17.8 µg/mL) | half-life [3]: > 120 min
Compound: CC(C)c1cc(C(=O)Nc2ccccn2)no1

IC50 (m7GpppX diphosphatase): 0.036 µM
Compound: Nc1nc(N)c2c(OCC3CCN(C(=O)c4cccc([125I])c4)CC3)cccc2n1
